Data reported in US10004701B2, “Methods and compositions for treating infection” (UNIVERSITY OF ROCHESTER, priority 2012, dated 2018).
Counter-ions that a name gives are not always drawn. Like-named read-outs stand apart in the source and are kept apart here.

Key:
Test in all cases: AK assay 384-well format, Prestwick library screening
[1] = tested on: A. baumannii strain 98-37-09; format: cell-based, Acinetobacter baumannii; settings: 50 μM final drug concentration; for fold induction at 50 µM: Acinetobacter baumannii, 983709, 3 h
P. aeruginosa = format: cell-based, Pseudomonas aeruginosa; settings: 50 μM final drug concentration; for fold induction at 50 µM: Pseudomonas aeruginosa, 3 h
K. pneumoniae = format: cell-based, Klebsiella pneumoniae; settings: 50 μM final drug concentration; for fold induction at 50 µM: Klebsiella pneumoniae, 3 h
[2] = tested on: S. aureus strain USA300-0114; format: cell-based, Staphylococcus aureus; settings: 50 μM final drug concentration; for fold induction at 50 µM: Staphylococcus aureus, USA300, 3 h
E. faecium = format: cell-based, Enterococcus faecium; settings: 50 μM final drug concentration; for fold induction at 50 µM: Enterococcus faecium, 3 h
E. coli = format: cell-based, Escherichia coli; settings: 50 μM final drug concentration; for fold induction at 50 µM: Escherichia coli, 3 h
E. cloacae = format: cell-based, Enterobacter cloacae; settings: 50 μM final drug concentration; for fold induction at 50 µM: Enterobacter cloacae, 3 h
[3] = planktonic A. baumannii, positive cutoff 3-fold increase, read-out: AK-based Prestwick library screening result, A. baumannii (fold increase in extracellular AK activity)
[4] = planktonic P. aeruginosa, positive cutoff 3-fold increase, read-out: AK-based Prestwick library screening result, P. aeruginosa (fold increase in extracellular AK activity)
[5] = planktonic K. pneumoniae, positive cutoff 3-fold increase, read-out: AK-based Prestwick library screening result, K. pneumoniae (fold increase in extracellular AK activity)
[6] = planktonic S. aureus, positive cutoff 3-fold increase, read-out: AK-based Prestwick library screening result, S. aureus (fold increase in extracellular AK activity)
[7] = planktonic E. faecium, positive cutoff 3-fold increase, read-out: AK-based Prestwick library screening result, E. faecium (fold increase in extracellular AK activity)
[8] = planktonic E. coli, positive cutoff 3-fold increase, read-out: AK-based Prestwick library screening result, E. coli (fold increase in extracellular AK activity)
[9] = planktonic E. cloacae, positive cutoff 3-fold increase, read-out: AK-based Prestwick library screening result, E. cloacae (fold increase in extracellular AK activity)
[10] = planktonic A. baumannii, 384-well, cutoff for positive-scoring molecules 3-fold increase, read-out: AK-based Prestwick Library Screening Results: A. baumannii (increase in extracellular AK activity)
[11] = planktonic P. aeruginosa, 384-well, cutoff for positive-scoring molecules 3-fold increase, read-out: AK-based Prestwick Library Screening Results: P. aeruginosa (increase in extracellular AK activity)
[12] = planktonic K. pneumoniae, 384-well, cutoff for positive-scoring molecules 3-fold increase, read-out: AK-based Prestwick Library Screening Results: K. pneumoniae (increase in extracellular AK activity)
[13] = planktonic S. aureus, 384-well, cutoff for positive-scoring molecules 3-fold increase, read-out: AK-based Prestwick Library Screening Results: S. aureus (increase in extracellular AK activity)
[14] = planktonic E. faecium, 384-well, cutoff for positive-scoring molecules 3-fold increase, read-out: AK-based Prestwick Library Screening Results: E. faecium (increase in extracellular AK activity)
[15] = planktonic E. coli, 384-well, cutoff for positive-scoring molecules 3-fold increase, read-out: AK-based Prestwick Library Screening Results: E. coli (increase in extracellular AK activity)
[16] = planktonic E. cloacae, 384-well, cutoff for positive-scoring molecules 3-fold increase, read-out: AK-based Prestwick Library Screening Results: E. cloacae (increase in extracellular AK activity)
[17] = planktonic A. baumannii, cutoff for positive-scoring molecules 3-fold increase, read-out: AK-based Prestwick Library Screening Results, A. baumannii (increase in extracellular AK activity)
[18] = planktonic P. aeruginosa, cutoff for positive-scoring molecules 3-fold increase, read-out: AK-based Prestwick Library Screening Results, P. aeruginosa (increase in extracellular AK activity)
[19] = planktonic K. pneumoniae, cutoff for positive-scoring molecules 3-fold increase, read-out: AK-based Prestwick Library Screening Results, K. pneumoniae (increase in extracellular AK activity)
[20] = planktonic S. aureus, cutoff for positive-scoring molecules 3-fold increase, read-out: AK-based Prestwick Library Screening Results, S. aureus (increase in extracellular AK activity)
[21] = planktonic E. faecium, cutoff for positive-scoring molecules 3-fold increase, read-out: AK-based Prestwick Library Screening Results, E. faecium (increase in extracellular AK activity)
[22] = planktonic E. coli, cutoff for positive-scoring molecules 3-fold increase, read-out: AK-based Prestwick Library Screening Results, E. coli (increase in extracellular AK activity)
[23] = planktonic E. cloacae, cutoff for positive-scoring molecules 3-fold increase, read-out: AK-based Prestwick Library Screening Results, E. cloacae (increase in extracellular AK activity)
[24] = 384-well format, cutoff for positive-scoring molecules 3-fold increase, read-out: AK-based Prestwick Library Screening Results, A. baumannii (increase in extracellular AK activity)
[25] = 384-well format, cutoff for positive-scoring molecules 3-fold increase, read-out: AK-based Prestwick Library Screening Results, P. aeruginosa (increase in extracellular AK activity)
[26] = 384-well format, cutoff for positive-scoring molecules 3-fold increase, read-out: AK-based Prestwick Library Screening Results, K. pneumoniae (increase in extracellular AK activity)
[27] = 384-well format, cutoff for positive-scoring molecules 3-fold increase, read-out: AK-based Prestwick Library Screening Results, S. aureus (increase in extracellular AK activity)
[28] = 384-well format, cutoff for positive-scoring molecules 3-fold increase, read-out: AK-based Prestwick Library Screening Results, E. faecium (increase in extracellular AK activity)
[29] = 384-well format, cutoff for positive-scoring molecules 3-fold increase, read-out: AK-based Prestwick Library Screening Results, E. coli (increase in extracellular AK activity)
[30] = 384-well format, cutoff for positive-scoring molecules 3-fold increase, read-out: AK-based Prestwick Library Screening Results, E. cloacae (increase in extracellular AK activity)

## C=CCOc1ccccc1OCC(O)CNC(C)C (centres unmarked) [Oxprenolol hydrochloride]
[1]; [3]
  fold induction at 50 µM: 0.6
P. aeruginosa; [4]
  fold induction at 50 µM: 0.6
K. pneumoniae; [5]
  fold induction at 50 µM: 0.6
[2]; [6]
  fold induction at 50 µM: 0.6
E. faecium; [7]
  fold induction at 50 µM: 0.9
E. coli; [8]
  fold induction at 50 µM: 0.7
E. cloacae; [9]
  fold induction at 50 µM: 0.9

## Nc1c2c(nc3ccccc13)CCCC2 [Tacrine hydrochloride hydrate]
[1]; [10]
  fold induction at 50 µM: 0.5
P. aeruginosa; [11]
  fold induction at 50 µM: 0.5
K. pneumoniae; [12]
  fold induction at 50 µM: 0.4
[2]; [13]
  fold induction at 50 µM: 0.5
E. faecium; [14]
  fold induction at 50 µM: 0.9
E. coli; [15]
  fold induction at 50 µM: 0.5
E. cloacae; [16]
  fold induction at 50 µM: 0.4

## CC(=O)Oc1cc(C(F)(F)F)ccc1C(=O)O [Triflusal]
[1]; planktonic, […], read-out: AK-based Prestwick Library Screening Results, A. baumannii (fold increase in extracellular AK activity)
  fold induction at 50 µM: 1
P. aeruginosa; planktonic, […], read-out: AK-based Prestwick Library Screening Results, P. aeruginosa (fold increase in extracellular AK activity)
  fold induction at 50 µM: 1.2
K. pneumoniae; planktonic, […], read-out: AK-based Prestwick Library Screening Results, K. pneumoniae (fold increase in extracellular AK activity)
  fold induction at 50 µM: 0.9
[2]; planktonic, […], read-out: AK-based Prestwick Library Screening Results, S. aureus (fold increase in extracellular AK activity)
  fold induction at 50 µM: 1.4
E. faecium; planktonic, […], read-out: AK-based Prestwick Library Screening Results, E. faecium (fold increase in extracellular AK activity)
  fold induction at 50 µM: 1
E. coli; planktonic, […], read-out: AK-based Prestwick Library Screening Results, E. coli (fold increase in extracellular AK activity)
  fold induction at 50 µM: 1.2
E. cloacae; planktonic, […], read-out: AK-based Prestwick Library Screening Results, E. cloacae (fold increase in extracellular AK activity)
  fold induction at 50 µM: 1.3

## NC(=O)c1ncn([C@@H]2O[C@H](CO)[C@@H](O)[C@H]2O)n1 [Ribavirin]
[1]; [3]
  fold induction at 50 µM: 0.9
P. aeruginosa; [4]
  fold induction at 50 µM: 1.1
K. pneumoniae; [5]
  fold induction at 50 µM: 0.7
[2]; [6]
  fold induction at 50 µM: 0.7
E. faecium; [7]
  fold induction at 50 µM: 0.9
E. coli; [8]
  fold induction at 50 µM: 0.8
E. cloacae; [9]
  fold induction at 50 µM: 1.2

## NCC(CC(=O)O)c1ccc(Cl)cc1 (racemic) [Baclofen (R,S)]
[1]; 384-well format, […]
  AK-based Prestwick Library Screening Results, A. baumannii (increase in extracellular AK activity): 0.4
P. aeruginosa; 384-well format, […]
  AK-based Prestwick Library Screening Results, P. aeruginosa (increase in extracellular AK activity): 0.3
K. pneumoniae; 384-well format, […]
  AK-based Prestwick Library Screening Results, K. pneumoniae (increase in extracellular AK activity): 0.6
[2]; 384-well format, […]
  AK-based Prestwick Library Screening Results, S. aureus (increase in extracellular AK activity): 0.4
E. faecium; 384-well format, […]
  AK-based Prestwick Library Screening Results, E. faecium (increase in extracellular AK activity): 0.8
E. coli; 384-well format, […]
  AK-based Prestwick Library Screening Results, E. coli (increase in extracellular AK activity): 0.5
E. cloacae; 384-well format, […]
  AK-based Prestwick Library Screening Results, E. cloacae (increase in extracellular AK activity): 0.3

## OC(CCN1CCCCC1)(c1ccccc1)C1CC2C=CC1C2 (centres unmarked) [Biperiden hydrochloride]
[1]; [17]
  fold induction at 50 µM: 0.8
P. aeruginosa; [18]
  fold induction at 50 µM: 0.8
K. pneumoniae; [19]
  fold induction at 50 µM: 0.8
[2]; [20]
  fold induction at 50 µM: 0.6
E. faecium; [21]
  fold induction at 50 µM: 0.9
E. coli; [22]
  fold induction at 50 µM: 1
E. cloacae; [23]
  fold induction at 50 µM: 0.9

## CN(C)/N=N/c1[nH]cnc1C(N)=O [Dacarbazine]
[1]; [17]
  fold induction at 50 µM: 1.6
P. aeruginosa; [18]
  fold induction at 50 µM: 0.9
K. pneumoniae; [19]
  fold induction at 50 µM: 3.8
[2]; [20]
  fold induction at 50 µM: 0.7
E. faecium; [21]
  fold induction at 50 µM: 1.1
E. coli; [22]
  fold induction at 50 µM: 2
E. cloacae; [23]
  fold induction at 50 µM: 0.8

## Cn1c(=O)c2c(ncn2CC(O)CO)n(C)c1=O (centres unmarked) [Diprophylline]
[1]; [24]
  fold induction at 50 µM: 0.8
P. aeruginosa; [25]
  fold induction at 50 µM: 0.7
K. pneumoniae; [26]
  fold induction at 50 µM: 0.6
[2]; [27]
  fold induction at 50 µM: 0.7
E. faecium; [28]
  fold induction at 50 µM: 0.9
E. coli; [29]
  fold induction at 50 µM: 1
E. cloacae; [30]
  fold induction at 50 µM: 1.1

## COc1ccc2c(c1OC)C(=O)O[C@@H]2[C@H]1c2c(cc3c(c2OC)OCO3)CCN1C [Noscapine]
[1]; [10]
  fold induction at 50 µM: 0.6
P. aeruginosa; [11]
  fold induction at 50 µM: 0.5
K. pneumoniae; [12]
  fold induction at 50 µM: 0.5
[2]; [13]
  fold induction at 50 µM: 0.5
E. faecium; [14]
  fold induction at 50 µM: 0.9
E. coli; [15]
  fold induction at 50 µM: 0.6
E. cloacae; [16]
  fold induction at 50 µM: 0.6

## N[C@H]1CONC1=O [(S)-(−)-Cycloserine]
[1]; planktonic A. baumannii, positive cutoff 3-fold increase
  AK-based Prestwick library screening result, A. baumannii (fold increase in extracellular AK activity): 1.1
P. aeruginosa; planktonic P. aeruginosa, positive cutoff 3-fold increase
  AK-based Prestwick library screening result, P. aeruginosa (fold increase in extracellular AK activity): 1.1
K. pneumoniae; planktonic K. pneumoniae, positive cutoff 3-fold increase
  AK-based Prestwick library screening result, K. pneumoniae (fold increase in extracellular AK activity): 1.0
[2]; planktonic S. aureus, positive cutoff 3-fold increase
  AK-based Prestwick library screening result, S. aureus (fold increase in extracellular AK activity): 1.1
E. faecium; planktonic E. faecium, positive cutoff 3-fold increase
  AK-based Prestwick library screening result, E. faecium (fold increase in extracellular AK activity): 1.1
E. coli; planktonic E. coli, positive cutoff 3-fold increase
  AK-based Prestwick library screening result, E. coli (fold increase in extracellular AK activity): 1.3
E. cloacae; planktonic E. cloacae, positive cutoff 3-fold increase
  AK-based Prestwick library screening result, E. cloacae (fold increase in extracellular AK activity): 1.6

## CCCCOc1ccc(CC(=O)NO)cc1 [Bufexamac]
[1]; [24]
  fold induction at 50 µM: 0.5
P. aeruginosa; [25]
  fold induction at 50 µM: 0.5
K. pneumoniae; [26]
  fold induction at 50 µM: 0.5
[2]; [27]
  fold induction at 50 µM: 0.4
E. faecium; [28]
  fold induction at 50 µM: 0.9
E. coli; [29]
  fold induction at 50 µM: 0.5
E. cloacae; [30]
  fold induction at 50 µM: 0.6
